According to patent US20060229438A1, “Monoclonal antibody derived peptide inhibitors for mycobacterial dna gyrase” (priority 2002, published 2006):

Tests used:
[1] = target: DNA gyrase from ciprofloxacin resistant M. smegmatis mc^2155 strain (Mycolicibacterium smegmatis, UniProt A0QNE0+P48354); format: biochemical
[2] = test system: DNA gyrase from ofloxacin resistant clinical isolate of M. tuberculosis (ICC-222)

Row | Molecule | susceptibility of the enzyme to ciprofloxacin [1] | IC50 ([1]; read-out: IC50 (no inhibition up to concentration)) [mM] | concentration that completely inhibited DNA gyrase [2] [nM]
1 | O=C(O)c1cn(C2CC2)c2cc(N3CCNCC3)c(F)cc2c1=O [ciprofloxacin, reference compound] | showed resistance | > 1.21 | –
2 | scFv:GyrA: engineered single chain antibody fragment of MsGyrA:C3, monovalent 30 kDa polypeptide, Seq. ID #2, encoded by pVNUHMscFv (protein) scFv: AQVKLQQSGAELVRPGASVKLSCKASGYSFTVYYIYWVKQRPGQALEWIGEINPSNGGTNFNEKFKTKATLTVDKSTSTVYMQLSSLTSEDSAVYYCTRWGLRRGFAYWGQGTTVTVSSSGGGSGGGGSGGGGSDIELTQSPKSMSMSVGERVTLSCKASENVGTHVSWYQQRPEESPKLLIYGASNRYTGVPDRFTGSGSATDFTLTISNVQAEDLADYHCGQTYSYPFTFGLGTKLEIKRAAAGAPVPYPDPLEPRAA | – | – | 10
